Results taken from ChEMBL document CHEMBL5338798, “An Analysis of Successful Hit-to-Clinical Candidate Pairs” (J Med Chem, 2023).

Biological target: T1, Tyrosine-protein phosphatase non-receptor type 11 (Homo sapiens, UniProt Q06124)
T1 sequence (Q06124 whole entry): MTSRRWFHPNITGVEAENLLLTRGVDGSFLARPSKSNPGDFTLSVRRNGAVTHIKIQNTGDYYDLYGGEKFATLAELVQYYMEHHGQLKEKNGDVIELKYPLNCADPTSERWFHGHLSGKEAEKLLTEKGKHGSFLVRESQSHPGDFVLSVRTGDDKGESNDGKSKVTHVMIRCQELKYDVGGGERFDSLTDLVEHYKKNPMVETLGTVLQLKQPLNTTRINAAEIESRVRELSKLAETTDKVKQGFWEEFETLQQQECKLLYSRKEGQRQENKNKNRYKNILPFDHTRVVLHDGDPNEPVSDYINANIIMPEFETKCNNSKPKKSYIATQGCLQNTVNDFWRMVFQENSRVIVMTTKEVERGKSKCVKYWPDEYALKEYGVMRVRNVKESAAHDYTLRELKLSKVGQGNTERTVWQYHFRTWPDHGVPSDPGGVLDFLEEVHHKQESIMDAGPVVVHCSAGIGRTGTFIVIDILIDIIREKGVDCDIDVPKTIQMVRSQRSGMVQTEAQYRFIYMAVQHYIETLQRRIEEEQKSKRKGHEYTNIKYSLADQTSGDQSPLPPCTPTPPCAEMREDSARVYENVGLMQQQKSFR
Test: Inhibition of SHP2 (unknown origin)

IC50: 30 nM
SMILES: CC1(N)CCN(c2cnc(Sc3cccc(Cl)c3Cl)c(N)n2)CC1
